Test results from US20260262643A1, “HERBICIDAL BENZOXAZINES” (FMC CORPORATION, priority 2022, published 2026).

Legend:
pigweed, palmer [1] = test: Test C preemergence; format: in vivo, Amaranthus palmeri; conditions: Preemergence, 1000 g ai/ha; visual rating after 10 days, 0 to 100 scale (0 no effect, 100 complete control)
Source text: (§1) Seeds of plant species selected from barnyardgrass (Echinochloa crusgalli), blackgrass (Alopecurus myosuroides), corn (Zea mays), foxtail, giant (giant foxtail, Setaria faberi), green foxtail (Setaria viridis), goosegrass (Eleusine indica), kochia (Bassia scoparia), oat, wild (wild oat, Avena fatua), pigweed, palmer (palmer amaranth, palmer pigweed, Amaranthus palmeri), Pigweed, Redroot (redroot pigweed, Amaranthus retroflexus), ragweed (common ragweed, Ambrosia artemisiifolia), ryegrass, Italian ([…] ryegrass, Lolium multiflorum), soybean (Glycine max), and wheat (Triticum aestivum) were planted into a blend of loam soil and sand and treated preemergence with a directed soil spray using test chemicals formulated in a non-phytotoxic solvent mixture which included a surfactant. At the same time, plants selected from these crops and weed species and also galium (catchweed bedstraw, Galium aparine) and horseweed (Erigeron canadensis) were planted in pots containing the same blend of loam soil and sand and treated with postemergence applications of test chemicals formulated in the same manner. Plants ranged in height from 2 to 10 cm and were in the one- to two-leaf stage for the postemergence treatment. Treated plants and untreated controls were maintained in a greenhouse for 10 days, after which time all treated plants were compared to untreated controls and visually evaluated for injury. Plant response ratings, summarized in Table C, are based on a 0 to 100 scale where 0 is no effect and 100 is complete control. A dash (-) response means no test result.

corn [2] = test: Test C preemergence; format: in vivo, Zea mays; conditions: Preemergence, 1000 g ai/ha; visual rating after 10 days, 0 to 100 scale (0 no effect, 100 complete control)
Source text: as §1

blackgrass [3] = test: Test C preemergence; format: in vivo, Alopecurus myosuroides; conditions: Preemergence, 1000 g ai/ha; visual rating after 10 days, 0 to 100 scale (0 no effect, 100 complete control)
Source text: as §1

galium = test: Test C postemergence; format: in vivo, Galium aparine; conditions: Postemergence, 1000 g ai/ha
Source text: as §1

barnyardgrass [4] = test: Test C postemergence; format: in vivo, Echinochloa crusgalli; conditions: Postemergence, 1000 g ai/ha
Source text: as §1

ryegrass, Italian [5] = test: Test C preemergence; format: in vivo, Lolium multiflorum; conditions: Preemergence, 1000 g ai/ha; visual rating after 10 days, 0 to 100 scale (0 no effect, 100 complete control)
Source text: as §1

corn [6] = test: Test C postemergence; format: in vivo, Zea mays; conditions: Postemergence, 1000 g ai/ha, 10 days, visual 0 to 100 scale (0 no effect, 100 complete control)
Source text: as §1

ryegrass, Italian [7] = test: Test C postemergence; format: in vivo, Lolium multiflorum; conditions: Postemergence, 1000 g ai/ha
Source text: as §1

kochia [8] = test: Test C postemergence; format: in vivo, Bassia scoparia; conditions: Postemergence, 1000 g ai/ha
Source text: as §1

horseweed = test: Test C postemergence; format: in vivo, Erigeron canadensis; conditions: Postemergence, 1000 g ai/ha
Source text: as §1

ragweed [9] = test: Test C postemergence; format: in vivo, Ambrosia artemisiifolia; conditions: Postemergence, 1000 g ai/ha
Source text: as §1

green foxtail [10] = test: Test C postemergence; format: in vivo, Setaria viridis; conditions: Postemergence, 1000 g ai/ha
Source text: as §1

ragweed [11] = test: Test C preemergence; format: in vivo, Ambrosia artemisiifolia; conditions: Preemergence, 1000 g ai/ha; visual rating after 10 days, 0 to 100 scale (0 no effect, 100 complete control)
Source text: as §1

green foxtail [12] = test: Test C preemergence; format: in vivo, Setaria viridis; conditions: Preemergence, 1000 g ai/ha; visual rating after 10 days, 0 to 100 scale (0 no effect, 100 complete control)
Source text: as §1

pigweed, palmer [13] = test: Test C postemergence; format: in vivo, Amaranthus palmeri; conditions: Postemergence, 1000 g ai/ha
Source text: as §1

kochia [14] = test: Test C preemergence; format: in vivo, Bassia scoparia; conditions: Preemergence, 1000 g ai/ha; visual rating after 10 days, 0 to 100 scale (0 no effect, 100 complete control)
Source text: as §1

barnyardgrass [15] = test: Test C preemergence; format: in vivo, Echinochloa crusgalli; conditions: Preemergence, 1000 g ai/ha; visual rating after 10 days, 0 to 100 scale (0 no effect, 100 complete control)
Source text: as §1

blackgrass [16] = test: Test C postemergence; format: in vivo, Alopecurus myosuroides; conditions: Postemergence, 1000 g ai/ha
Source text: as §1

[17] = 10 days, visual 0 to 100 scale (0 no effect, 100 complete control)
[18] = 0 to 100 scale, 0 no effect, 100 complete control

| Compound | Plant response rating, Pigweed, Palmer (pigweed, palmer [1]) | Plant response rating, Blackgrass (blackgrass [3]) | Plant response rating, Galium (galium; [17]) | Plant response rating, Barnyardgrass (barnyardgrass [4]; [18]) | Plant response rating, Ryegrass, Italian (ryegrass, Italian [5]) | Plant response rating, Ryegrass, Italian (ryegrass, Italian [7]; [17]) | Plant response rating, Kochia (kochia [8]; [17]) | Plant response rating, Horseweed (horseweed; [17]) | Plant response rating, Ragweed (ragweed [9]; [17]) | Plant response rating, Foxtail, Green (green foxtail [10]; [17]) | Plant response rating, Ragweed (ragweed [11]) | Plant response rating, Foxtail, Green (green foxtail [12]) | Plant response rating, Pigweed, Palmer (pigweed, palmer [13]; [17]) | Plant response rating, Kochia (kochia [14]) | Plant response rating, Barnyardgrass (barnyardgrass [15]) | Plant response rating, Blackgrass (blackgrass [16]; [17]) | Plant response rating, Barnyardgrass (barnyardgrass [4]; [17]) | Plant response rating, Galium (galium; [18]) | Plant response rating, Ryegrass, Italian (ryegrass, Italian [7]; [18]) | Plant response rating, Kochia (kochia [8]; [18]) | other results |
| --- | --- | --- | --- | --- | --- | --- | --- | --- | --- | --- | --- | --- | --- | --- | --- | --- | --- | --- | --- | --- | --- |
| C[C@H]1CN(C(=O)c2cccc(-c3cnnn3C)c2)c2cccc(Cl)c2O1 [Compound 239] | 80 | 30 | 70 | 30 | 70 | 0 | 40 | 30 | 50 | 30 | 0 | 100 | 70 | 30 | 50 | 10 | – | – | – | – | Plant response rating, Corn (corn [2]): 0; Plant response rating, Corn (corn [6]): 0 |
| Cc1cccc2c1O[C@@H](C)CN2C(=O)c1cccc(-n2cncc2C#N)c1 [Compound 309] | 70 | 20 | 70 | – | 70 | 10 | 40 | 30 | 30 | 10 | 0 | 90 | 70 | 10 | 0 | 0 | 10 | – | – | – | – |
| Cc1cc(-c2cccc(C(=O)N3C[C@H](C)Oc4c(C)cccc43)c2)cnn1 [Compound 209] | 0 | 0 | 40 | 0 | 30 | 0 | 0 | 20 | 0 | 0 | 0 | 0 | 0 | 0 | 0 | 0 | – | – | – | – | – |
| C[C@H]1CN(C(=O)c2cccc(-c3ccc(Cl)nc3)c2)c2cccc(Cl)c2O1 [Compound 383] | 10 | 0 | 0 | – | 0 | 0 | 50 | 0 | 0 | 0 | 0 | 20 | 50 | 0 | 0 | 10 | 10 | – | – | – | – |
| Cc1ncc(-c2cccc(C(=O)N3C[C@H](C)Oc4c(C)cccc43)c2)cn1 [Compound 161] | 0 | 0 | – | 10 | 80 | – | – | – | – | – | 80 | 70 | – | 30 | 50 | – | – | 50 | 20 | 30 | Plant response rating, Horseweed (horseweed; [18]): 10; Plant response rating, Ragweed (ragweed [9]; [18]): 50; Plant response rating, Foxtail, Green (green foxtail [10]; [18]): 10; Plant response rating, Pigweed, Palmer (pigweed, palmer [13]; [18]): 0; Plant response rating, Blackgrass (blackgrass [16]; [18]): 50 |
| Cc1cc(-c2cccc(C(=O)N3C[C@H](C)Oc4c(Cl)cccc43)c2)sn1 [Compound 389] | 70 | 30 | 90 | – | 60 | 0 | 80 | 0 | 30 | 70 | 20 | 100 | 90 | 90 | 70 | 10 | 70 | – | – | – | – |
| C[C@H]1CN(C(=O)c2cccc(-c3cncc(Cl)c3)c2)c2cccc(Cl)c2O1 [Compound 384] | 30 | 0 | 40 | – | 0 | 0 | 50 | 0 | 0 | 10 | 0 | 30 | 60 | 0 | 0 | 10 | 10 | – | – | – | – |
| Cc1ccc(-c2cccc(C(=O)N3C[C@H](C)Oc4c(C)cccc43)c2)cn1 [Compound 159] | 20 | 0 | – | 10 | 20 | – | – | – | – | – | 0 | 20 | – | 0 | 0 | – | – | 50 | 40 | 40 | Plant response rating, Horseweed (horseweed; [18]): 0; Plant response rating, Ragweed (ragweed [9]; [18]): 60; Plant response rating, Foxtail, Green (green foxtail [10]; [18]): 30; Plant response rating, Pigweed, Palmer (pigweed, palmer [13]; [18]): 20; Plant response rating, Blackgrass (blackgrass [16]; [18]): 0 |
| Cc1cnc(-c2cccc(C(=O)N3C[C@H](C)Oc4c(C)cccc43)c2)cn1 [Compound 162] | 30 | 30 | – | 10 | 70 | – | – | – | – | – | 0 | 90 | – | 0 | 60 | – | – | 50 | 40 | 70 | Plant response rating, Horseweed (horseweed; [18]): 0; Plant response rating, Ragweed (ragweed [9]; [18]): 20; Plant response rating, Foxtail, Green (green foxtail [10]; [18]): 10; Plant response rating, Pigweed, Palmer (pigweed, palmer [13]; [18]): 20; Plant response rating, Blackgrass (blackgrass [16]; [18]): 0 |
| Cc1cc(-c2cccc(C(=O)N3C[C@H](C)Oc4c(C)cccc43)c2)ccn1 [Compound 163] | 0 | 10 | – | 0 | 20 | – | – | – | – | – | 0 | 10 | – | 0 | 0 | – | – | 0 | 0 | 50 | Plant response rating, Horseweed (horseweed; [18]): 0; Plant response rating, Ragweed (ragweed [9]; [18]): 20; Plant response rating, Foxtail, Green (green foxtail [10]; [18]): 10; Plant response rating, Pigweed, Palmer (pigweed, palmer [13]; [18]): 30; Plant response rating, Blackgrass (blackgrass [16]; [18]): 20 |
